# Source: article PMC9775322, “An Integrated Analysis of Mechanistic Insights into Biomolecular Interactions and Molecular Dynamics of Bio-Inspired Cu(II) and Zn(II) Complexes towards DNA/BSA/SARS-CoV-2 3CL^pro by Molecular Docking-Based Virtual Screening and FRET Detection” (Biomolecules, 2022)
# Legend:
# CT-DNA = assay: DNA binding by UV–visible absorption titration; set-up: species or system calf; settings: for ΔGb° values, range over all methods (WS, BH, SK): DNA binding; for ΔGb° values, range over all methods (WS, BH, SK) / Kb, BH–I (Benesi–Hildebrand method I) / Kb, BH–II (Benesi–Hildebrand method II) / Kb, SK–I (Sakthi–Krause method I) / Kb, SK–II (Sakthi–Krause method II) / Kb, WS–I (Wolfe-Shimmer method I) / Kb, WS–II (Wolfe-Shimmer method II): UV–Vis titration; for % H (hypochromism) / Δλ nm (red shift on binding to CT-DNA): compound 50 μM, DNA 0–50 μM, Tris-HCl buffer pH 7.4, 25 °C; for Kb, BH–I (Benesi–Hildebrand method I) / Kb, BH–II (Benesi–Hildebrand method II) / Kb, SK–I (Sakthi–Krause method I) / Kb, SK–II (Sakthi–Krause method II) / Kb, WS–I (Wolfe-Shimmer method I) / Kb, WS–II (Wolfe-Shimmer method II): intrinsic DNA binding constant; for ΔGb°, BH–I / ΔGb°, BH–II / ΔGb°, SK–I / ΔGb°, SK–II / ΔGb°, WS–I / ΔGb°, WS–II: −RT ln Kb, T = 298 K
# Description: The DNA-binding experiment was performed by a UV–visible spectrophotometer by raising the DNA concentration from zero to 50 μM to the given concentration of all samples (50 μM) in Tris-HCl buffer with a pH of 7.4 at 25 °C [21, 22].
# 2.2.2. Evaluation of DNA-binding characteristics
# By increasing the concentration of DNA (0 –50 μM), electronic absorption titrations were performed at the fixed concentration (50 μM) of all test compounds in aqueous media at room temperature. The Tris-HCl buffer (5mM Tris-HCl /50 mM NaCl, pH = 7.2) solution was guaranteed to be pure and contain sufficient amounts of DNA. Using the molar extinction coefficient (6600 M −1 cm−1) at 260 nm, it was also possible to measure the DNA concentration per nucleotide and polynucleotide, denoting that the DNA was sufficiently free of protein by the ratio of absorbance at 260 and 280 nm of roughly 1.8 –1.9 [21, 22]. When raising the concentration of DNA in compound solution, up to the point of completely binding, the decrease in absorbance intensity was carefully observed. […]
# ɛa is represented as the apparent absorption coefficient value for the MLCT band at a specific concentration of deoxyribonucleic acid and evaluated from Abs/[complex]. ɛ f and ɛb are the absorption coefficients for the chemical substance alone and completely interacted with deoxyribonucleic acid, respectively. ∆Amax = (Amax–A0); ∆A=(Ax–A0), where A0, Ax and Amax are denoted as the optical density of chemical substances alone, the middle form, and the completely interacted form with deoxyribonucleic acid, respectively.
# EB–DNA = assay: Ethidium bromide displacement assay by fluorescence spectral titration; type: binding, calf; settings: for LWB Method KLB (Lineweaver-Burk binding constant) / Scatchard Analysis KSA (Scatchard association binding constant) / Scatchard Analysis n (number of binding sites) / n (number of binding sites), DNA binding, Stern–Volmer Method–II / KSV (Stern-Volmer binding constant), DNA binding, Method–I / Kass (association binding constant), DNA binding, Stern–Volmer Method–II: EB–DNA; for LWB Method KLB (Lineweaver-Burk binding constant) / Scatchard Analysis KSA (Scatchard association binding constant) / Scatchard Analysis n (number of binding sites) / n (number of binding sites), DNA binding, Stern–Volmer Method–II / Kq (bimolecular quenching rate constant), DNA binding, Stern–Volmer Method–I: pH 7.4; for KSV (Stern-Volmer binding constant), DNA binding, Method–I / Kass (association binding constant), DNA binding, Stern–Volmer Method–II: pH 7.4, 610 nm; for Kq (bimolecular quenching rate constant), DNA binding, Stern–Volmer Method–I: Kq=KSV/τ0, τ0 = 10^−8 S, 610 nm; for P (ratio of fluorescence quantum efficiency of DNA bound and free complex): intercept of F/F0 vs 1/[DNA]; for ΔGb°, DNA binding, Stern–Volmer Method–II: −RT ln Kass, T = 298 K
# Description: The DNA/BSA binding properties were acquired from the emission spectral titration with the supporting of the JASCO FP-6300 spectrofluorometer between the 200 and 800 nm regions. It is additional evidence for the complexes’ manner of DNA binding. While DNA (200 µM) was present or absent, we vigilantly monitored the intensity variations between 610 nm and 510 nm during the initial emission and excitation of EB [27]. Correspondingly, the emission titrations for BSA interaction with different concentrations between 2.5 μM and 25 μM for all samples were conducted in a Tris-HCl buffer solution (pH: 7.4) between the regions of 300 nm and 400 nm.
# 2.2.5. DNA/BSA binding assay by fluorescence titration
# The titration was executed by the JASCO FP-6300 spectrofluorometer in the range of 200 – […]
# DNA. To assess the relative DNA binding abilities of the test compound to CT-DNA, ethidium bromide (EB) was utilized as a reference. In the experiment, EB solution (20 µM) in 50 mM Tris –HCl /1 mM NaCl buffer solution (pH=7.2) was incubated with the DNA […]
# solution (240 µM) at saturated binding levels and stored in a dark place for two hours. The tested compounds (1 –240 µM) were titrated with pre-incubated EB-bound DNA.
# Additionally, from 610 nm to 510 nm, in the absence and presence of DNA (240 µM), the intensity changes for initial emission and excitation of EB were cautiously observed. As a conjugate planar molecule, EB's acquired fluorescence intensity is extremely low, but it […]
# concentration of the compounds (0-240 µM), the intensity of the EB-DNA system decreases owing to the quenching effect of DNA by the manner of static quenching. It further attributes the generation of ground state DNA – complex adduct owing the cationic metal complexes interacting with the negatively charged oxygen in phosphodiester of DNA and the contraction of DNA pushes a few EB molecules out of DNA base pairs [ 27].
# Fcorr = Fobs × e[(Aex× dex) + (Aem× dem)]/ 2 = Fobs × e(Aex + Aem)/ 2 (S12) Fcorr and F obs are represented as the IFE-corrected emission and observed (uncorrected) emission intensities, respectively. d ex and d em are denoted as the cuvette path lengths in the […]
# excitation and emission directions, respectively. Also, the alteration in absorbance (OD) at the excitation and fluorescence wavelengths, respectively, is sometimes referred to as A ex and […]
# F = 1+KSV [Q] = 1+ Kq τ0 (S13)
# Where [Q] is represented as the sample concentration (quencher), the emission intensities F 0 and F are those in the […] of the quencher, respectively.
# F ) = log Kass + nlog [Q] (S14)
# KEB[EB] = Kapp[compound] (S15)
# ∆F = (F 0–F), Equation (16) was utilized to examine the Lineweaver –Burk binding constant (KLB) from the linear regression plot of 1/(F0–F) vs 1/[Q]. […]
# γ =(F0–F)/F0, CF is denoted as the concentration of sample alone, the linear regression plot of (γ/CF) vs γ was employed to support equation (17), which was used to determine the values of KSA and n, respectively.
# 2.2.6. FRET calculation by Förster’s theory
# Calculating FRET (Fluorescence Resonance Energy Transfer) is a crucial approach in determining the critical distance (r) between donor (BSA) and acceptor (test compound) molecules, in which the binding affinity between the BSA-complex systems could be evalued according to Förster’s theory. The overlap of the emission spectrum of the donor (BSA) and the absorption spectrum of the acceptor (compound) describes that the acceptor (compound) group may get excited as a result of the excited donor's (BSA) energy being lost to the ground
Compound,% H (hypochromism) (CT-DNA) [%],Δλ nm (red shift on binding to CT-DNA) (CT-DNA) [nm],"Kb, BH–I (Benesi–Hildebrand method I) (CT-DNA)","Kb, BH–II (Benesi–Hildebrand method II) (CT-DNA)","Kb, SK–I (Sakthi–Krause method I) (CT-DNA) [M⁻¹]","Kb, SK–II (Sakthi–Krause method II) (CT-DNA) [M⁻¹]","Kb, WS–I (Wolfe-Shimmer method I) (CT-DNA) [M⁻¹]","Kb, WS–II (Wolfe-Shimmer method II) (CT-DNA) [M⁻¹]","ΔGb°, BH–I (CT-DNA)","ΔGb°, BH–II (CT-DNA)","ΔGb°, SK–I (CT-DNA) [kJmol^−1]","ΔGb°, SK–II (CT-DNA) [kJmol^−1]","ΔGb°, WS–I (CT-DNA) [kJmol^−1]","ΔGb°, WS–II (CT-DNA) [kJmol^−1]",LWB Method KLB (Lineweaver-Burk binding constant) (EB–DNA) [M⁻¹],Scatchard Analysis KSA (Scatchard association binding constant) (EB–DNA) [M⁻¹],Scatchard Analysis n (number of binding sites) (EB–DNA),"n (number of binding sites), DNA binding, Stern–Volmer Method–II (EB–DNA)","KSV (Stern-Volmer binding constant), DNA binding, Method–I (EB–DNA) [M⁻¹]","Kass (association binding constant), DNA binding, Stern–Volmer Method–II (EB–DNA) [M⁻¹]",further results
"[Cu+2].[O-]c1ccccc1N=Cc1ccc(N2CCOCC2)cc1.[O-]c1ccccc1N=Cc1ccc(N2CCOCC2)cc1.c1cnc2c(c1)ccc1cccnc12 [(1b), [Cu^II(L)2(phen)]]",56.88,7,25359 M⁻¹,25251 M⁻¹,20314,21747,20610,21357,−25.12 kJmol^−1,−25.11 kJmol^−1,−24.58,−24.74,−24.61,−24.70,21654,33302,1.008,1.088,40303,31817,"ΔGb° values, range over all methods (WS, BH, SK) (CT-DNA): −24.58 to −25.12 kJmol^−1; Kq (bimolecular quenching rate constant), DNA binding, Stern–Volmer Method–I (EB–DNA): 4.0303e+12 M⁻¹ s⁻¹; P (ratio of fluorescence quantum efficiency of DNA bound and free complex) (EB–DNA): 0.128; ΔGb°, DNA binding, Stern–Volmer Method–II (EB–DNA): –26.942 kJM^−1"
"[O-]c1ccccc1N=Cc1ccc(N2CCOCC2)cc1.[O-]c1ccccc1N=Cc1ccc(N2CCOCC2)cc1.[Zn+2].c1cnc2c(c1)ccc1cccnc12 [(2b), [Zn^II(L)2(phen)]]",55.75,5,20131 M⁻¹,20035 M⁻¹,19471,20897,19930,20811,−24.55 kJmol^−1,−24.54 kJmol^−1,−24.47,−24.65,−24.53,−24.64,18218,32941,0.909,1.083,20669,19688,"ΔGb° values, range over all methods (WS, BH, SK) (CT-DNA): −24.47 to −24.65 kJmol^−1; Kq (bimolecular quenching rate constant), DNA binding, Stern–Volmer Method–I (EB–DNA): 2.0669e+12 M⁻¹ s⁻¹; P (ratio of fluorescence quantum efficiency of DNA bound and free complex) (EB–DNA): 0.124; ΔGb°, DNA binding, Stern–Volmer Method–II (EB–DNA): –24.873 kJM^−1"
"Oc1ccccc1N=Cc1ccc(N2CCOCC2)cc1 [(HL), 2-(4-morpholinobenzylideneamino)phenol]",46.88,4,1.0545 (1.0545) × 10^4 M^−1,1.0545 (1.0545) × 10^4 M^−1,8775,15618,15169,15480,−22.95 (−22.95) kJmol^−1,−22.95 (−22.95) kJmol^−1,−22.50,−23.92,−23.85,−23.90,6985,23194,1.096,0.976,11636,9882,"Kq (bimolecular quenching rate constant), DNA binding, Stern–Volmer Method–I (EB–DNA): 1.1636e+12 M⁻¹ s⁻¹; P (ratio of fluorescence quantum efficiency of DNA bound and free complex) (EB–DNA): 0.090; ΔGb°, DNA binding, Stern–Volmer Method–II (EB–DNA): –22.790 kJM^−1"
